According to US8816101B2, “Paraconic acids as pigmentation activators” (Centre National de la Recherche Scientifique—CNRS, priority 2010, dated 2014):

Test system: B16 murine cells
Assay: Melanin content of B16 murine cells by spectrophotometry (pigmenting activity in vitro)
Format: cell-based
Conditions: B16 cells treated 72 h
Protocol: Protocol: The melanin content of B16 murine cells is determined by spectrophotometry.
The cells are seeded in 10-cm Petri dishes at a density of 1×10^6 per dish and are treated every 24 hours for 72 hours with the specified dose of purified lichenic substance, dissolved in DMSO. […] After treatment, the cells are washed twice with PBS and recovered by treatment with trypsin. The number of cells recovered is estimated by counting using a haemocytometer. One fraction is used for determining the melanin content and a second fraction for the concentration of protein. The melanin content is determined from the absorbance at 405 nm (VersaMax Microplate Reader, Molecular Devices, USA) of the cellular solution after solubilization of the melanin with 1M sodium hydroxide, for 15 min at 80° C. The protein concentration is determined according to the protocol of the “DC Protein Assay” kit developed by Bio-Rad Laboratories, USA. For each sample treated, the melanin content is referred to the amount of protein and expressed as percentage relative to the control situation (DMSO solution only). Each measurement is performed in triplicate and each experiment is carried out independently for a minimum of 3 times.
The molecules tested, with their concentrations expressed in μM, are shown on the abscissa.
On the ordinate, the melanin content is expressed as percentage relative to the control (DMSO alone=concentration of 0.1%).

| Structure (SMILES) | pro-pigmenting effect (% of pigmentation) (5 μM, relative to DMSO control) [%] | pigmentation relative to the control (melanin content) (0.5 μM, control DMSO 0.1%) [%] | depigmentation (0.5 μM, relative to DMSO control) [%] |
| --- | --- | --- | --- |
| CCCCCCCCCCCCC[C@H]1OC(=O)C(C)=C1C(=O)O [lichesterinic acid, (+)-Lichesterinic acid] | 26 |  |  |
| C=C1C(=O)O[C@H](CCCCCCCCCCCCC)[C@H]1C(=O)O [protolichesterinic acid, (+)-Protolichesterinic acid] |  | 72 | 28 |
